Measurements as given in ChEMBL document CHEMBL3352029, “Ring fusion strategy for the synthesis of anthra[2,3-d]oxazole-2-thione-5,10-dione homologues as DNA topoisomerase inhibitors and as antitumor agents” (Eur J Med Chem, 2014).
Activity calls are given as the source filed them. The rule behind the calls is not given here.

What was measured:
[1] = Cytotoxicity against human OVCAR3 cells assessed as cell growth level at 10 uM after 48 hrs by sulforhodamine B assay; type: functional, OVCAR-3
[2] = tested on: Malme-3M; assay: Cytotoxicity against human MALME-3M cells assessed as cell growth level at 10 uM after 48 hrs by sulforhodamine B assay; type: functional
[3] = Cytotoxicity against human HCT116 cells assessed as cell growth level at 10 uM after 48 hrs by sulforhodamine B assay; type: functional, HCT-116
[4] = tested on: HOP-62; assay: Cytotoxicity against human HOP62 cells assessed as cell growth level at 10 uM after 48 hrs by sulforhodamine B assay; type: functional
[5] = tested on: A498; assay: Cytotoxicity against human A498 cells assessed as cell growth level at 10 uM after 48 hrs by sulforhodamine B assay; type: functional
[6] = Cytotoxicity against human PC3 cells assessed as cell growth level at 10 uM after 48 hrs by sulforhodamine B assay; type: functional, PC-3
[7] = tested on: NCI-H322M; assay: Cytotoxicity against human NCI-H322M cells assessed as cell growth level at 10 uM after 48 hrs by sulforhodamine B assay; type: functional
[8] = tested on: SK-MEL-2; assay: Cytotoxicity against human SK-MEL-2 cells assessed as cell growth level at 10 uM after 48 hrs by sulforhodamine B assay; type: functional
[9] = tested on: CCRF-CEM; assay: Cytotoxicity against human CCRF-CEM cells assessed as cell growth level at 10 uM after 48 hrs by sulforhodamine B assay; type: functional
[10] = tested on: SNB-75; assay: Cytotoxicity against human SNB75 cells assessed as cell growth level at 10 uM after 48 hrs by sulforhodamine B assay; type: functional
[11] = Cytotoxicity against human PC3 cells assessed as inhibition of cell growth after 48 hrs by sulforhodamine B assay; type: functional, cell-based; details: PC-3, 48 h
[12] = tested on: ACHN; assay: Cytotoxicity against human ACHN cells assessed as cell growth level at 10 uM after 48 hrs by sulforhodamine B assay; type: functional
[13] = tested on: MDA-MB-435; assay: Cytotoxicity against human MDA-MB-435 cells assessed as cell growth level at 10 uM after 48 hrs by sulforhodamine B assay; type: functional
[14] = target: T1, DNA topoisomerase 1 (Homo sapiens) (UniProt P11387); assay: Inhibition of human recombinant DNA topoisomerase 1 assessed as reduction in relaxation of supercoiled pHOT DNA at 6.25 to 25 uM incubated for 45 mins by ethidium bromide staining based gel electrophoresis
T1 sequence (whole entry): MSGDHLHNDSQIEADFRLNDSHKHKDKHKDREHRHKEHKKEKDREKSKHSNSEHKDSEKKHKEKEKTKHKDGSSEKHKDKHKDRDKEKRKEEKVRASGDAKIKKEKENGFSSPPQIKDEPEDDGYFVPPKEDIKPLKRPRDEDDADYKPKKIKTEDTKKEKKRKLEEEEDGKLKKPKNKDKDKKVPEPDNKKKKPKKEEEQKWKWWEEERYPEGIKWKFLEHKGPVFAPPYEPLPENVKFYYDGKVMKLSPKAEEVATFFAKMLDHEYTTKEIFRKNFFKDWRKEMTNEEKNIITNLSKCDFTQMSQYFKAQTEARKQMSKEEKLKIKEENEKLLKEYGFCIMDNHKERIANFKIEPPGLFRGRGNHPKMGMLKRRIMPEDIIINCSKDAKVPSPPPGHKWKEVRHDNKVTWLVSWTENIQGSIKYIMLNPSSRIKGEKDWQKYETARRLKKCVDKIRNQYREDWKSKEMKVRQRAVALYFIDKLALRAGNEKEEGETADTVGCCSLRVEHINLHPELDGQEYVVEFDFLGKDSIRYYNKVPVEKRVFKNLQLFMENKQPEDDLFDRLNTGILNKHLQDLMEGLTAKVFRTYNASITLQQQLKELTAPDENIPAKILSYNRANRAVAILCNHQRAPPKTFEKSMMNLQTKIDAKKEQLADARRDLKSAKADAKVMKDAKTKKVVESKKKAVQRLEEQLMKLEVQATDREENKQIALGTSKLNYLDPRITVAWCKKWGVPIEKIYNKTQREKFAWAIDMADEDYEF

[15] = target: T1, DNA topoisomerase 1 (Homo sapiens); assay: Inhibition of human recombinant DNA topoisomerase 1 assessed as reduction in relaxation of supercoiled pHOT DNA at 25 to 50 uM incubated for 45 mins by ethidium bromide staining based gel electrophoresis

SMILES | Activity [1] [%] | Activity [2] [%] | Activity [3] [%] | Activity [4] [%] | Activity [5] [%] | Activity [6] [%] | Activity [7] [%] | Activity [8] [%] | Activity [9] [%] | Activity [10] [%] | IC50 [11] [µM] | Activity [12] [%] | Activity [13] [%] | inhibition [14] | inhibition [15]
CCSc1nc2cc3c(cc2o1)C(=O)c1ccccc1C3=O | 101 | 91.75 | 95.99 | 75.13 | 80.69 | 84.23 | 77.88 | 96.71 | 90.48 | 96.42 | > 30 | 90.86 | 101.49 |  | 
O=C1c2ccccc2C(=O)c2cc3oc(SCc4ccc(F)cc4)nc3cc21 | 115.02 | 89.8 | 88.61 | 89.39 | 94.5 | 88.52 | 85.42 | 86.04 | 86.28 | 88.45 | > 30 | 82.53 | 91.05 |  | 
CN(C)CCCSc1nc2cc3c(cc2o1)C(=O)c1ccccc1C3=O | 100.68 | 101.35 | 59.24 | 85.62 | 72.09 | 85.96 | 85.16 | 92.13 | 55.33 | 88.28 | 16 | 57.3 | 85.47 | Dose-dependent effect | Active
